Laboratory results taken from patent US7928107B2, “Quinazolines useful as modulators of ion channels” (Vertex Pharmaceuticals Incorporated, priority 2004, dated 2011).

What follows are compounds tested against NaV 1.8 channel (Homo sapiens, UniProt Q9Y5Y9) (assay: Activity against NaV 1.8 channel (optical membrane potential assay)).
Type: cell-based
Method in brief: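 FRET membrane-potential assay (coumarin CC2-DMPE donor, oxonol DiSBAC2(3) acceptor plus veratridine) on VIPR; compound added with oxonol for 20–30 min before Na+ add-back stimulation. Activity from background-subtracted 460/580 nm ratio change (baseline 2–7 s, response 15–24 s) relative to tetracaine positive and drug-free negative controls.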

NaV 1.8 channel, sequence (Q9Y5Y9 whole entry): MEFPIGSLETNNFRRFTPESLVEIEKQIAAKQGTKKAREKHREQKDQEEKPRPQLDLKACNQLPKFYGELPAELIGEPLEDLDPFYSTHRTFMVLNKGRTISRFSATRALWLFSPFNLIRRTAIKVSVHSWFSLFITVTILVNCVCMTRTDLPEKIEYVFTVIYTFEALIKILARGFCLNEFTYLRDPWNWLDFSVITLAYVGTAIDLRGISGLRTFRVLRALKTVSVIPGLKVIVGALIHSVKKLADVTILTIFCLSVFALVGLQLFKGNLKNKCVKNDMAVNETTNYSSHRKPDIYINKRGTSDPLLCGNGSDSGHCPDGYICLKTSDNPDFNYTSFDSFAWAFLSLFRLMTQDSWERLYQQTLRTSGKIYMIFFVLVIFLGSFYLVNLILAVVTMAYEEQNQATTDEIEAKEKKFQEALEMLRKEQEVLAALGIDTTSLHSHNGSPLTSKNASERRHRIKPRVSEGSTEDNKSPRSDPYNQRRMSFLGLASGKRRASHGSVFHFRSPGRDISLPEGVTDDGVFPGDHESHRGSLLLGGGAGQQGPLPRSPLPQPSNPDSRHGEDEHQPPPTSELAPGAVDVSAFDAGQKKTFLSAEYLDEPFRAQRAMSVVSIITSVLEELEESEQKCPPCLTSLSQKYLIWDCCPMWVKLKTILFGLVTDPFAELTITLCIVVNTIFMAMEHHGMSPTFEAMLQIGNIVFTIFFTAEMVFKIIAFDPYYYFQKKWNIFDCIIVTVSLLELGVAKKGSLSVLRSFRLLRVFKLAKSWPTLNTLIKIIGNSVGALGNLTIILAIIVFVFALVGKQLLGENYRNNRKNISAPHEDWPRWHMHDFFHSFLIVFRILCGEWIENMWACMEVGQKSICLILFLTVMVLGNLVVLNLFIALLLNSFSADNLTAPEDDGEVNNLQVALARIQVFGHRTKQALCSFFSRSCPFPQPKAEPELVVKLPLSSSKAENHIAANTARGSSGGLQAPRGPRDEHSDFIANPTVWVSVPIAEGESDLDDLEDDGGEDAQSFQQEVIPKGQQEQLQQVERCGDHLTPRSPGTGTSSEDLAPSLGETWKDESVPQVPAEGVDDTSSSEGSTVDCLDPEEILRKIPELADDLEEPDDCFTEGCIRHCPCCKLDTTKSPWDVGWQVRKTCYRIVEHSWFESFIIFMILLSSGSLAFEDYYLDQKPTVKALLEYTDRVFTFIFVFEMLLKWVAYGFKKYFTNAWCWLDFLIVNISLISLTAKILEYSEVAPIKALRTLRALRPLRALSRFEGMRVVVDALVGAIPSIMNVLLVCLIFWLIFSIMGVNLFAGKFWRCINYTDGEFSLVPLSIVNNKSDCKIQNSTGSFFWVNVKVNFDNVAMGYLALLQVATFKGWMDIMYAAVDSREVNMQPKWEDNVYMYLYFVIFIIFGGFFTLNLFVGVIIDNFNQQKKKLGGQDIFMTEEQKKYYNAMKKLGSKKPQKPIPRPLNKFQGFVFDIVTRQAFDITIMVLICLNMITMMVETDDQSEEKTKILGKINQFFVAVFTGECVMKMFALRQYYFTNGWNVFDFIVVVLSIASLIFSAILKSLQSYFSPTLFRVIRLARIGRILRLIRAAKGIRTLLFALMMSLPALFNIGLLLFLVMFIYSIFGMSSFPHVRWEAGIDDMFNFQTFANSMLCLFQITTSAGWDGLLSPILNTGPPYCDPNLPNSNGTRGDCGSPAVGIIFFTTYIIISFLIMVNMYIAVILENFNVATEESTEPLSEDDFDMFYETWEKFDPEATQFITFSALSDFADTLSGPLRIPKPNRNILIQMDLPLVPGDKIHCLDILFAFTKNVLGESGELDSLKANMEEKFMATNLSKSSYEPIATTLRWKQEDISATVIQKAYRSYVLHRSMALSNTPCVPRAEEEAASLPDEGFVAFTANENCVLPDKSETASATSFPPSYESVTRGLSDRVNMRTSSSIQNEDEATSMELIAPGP

| IC50 [µM] | Compound |
| --- | --- |
| > 10 | CC(C)COC(=O)NC[C@@H]1CCN(c2nc(-c3ccccc3O)nc3ccc(F)cc23)C1 [Example 376, Isobutyl ((S)-1-(6-fluoro-2-(2-hydroxyphenyl)quinazolin-4-yl)pyrrolidin-3-yl)methylcarbamate] |
| 2 to 10 | COCCOC(=O)NC[C@@H]1CCN(c2nc(-c3ccccc3O)nc3ccc(F)cc23)C1 [Example 377, 2-Methoxyethyl ((S)-1-(6-fluoro-2-(2-hydroxyphenyl)quinazolin-4-yl)pyrrolidin-3-yl)methylcarbamate] |
| > 10 | Cc1ccc2c(N3CC(C(=O)NCc4ccncc4)C3)nc(-c3ccccc3O)nc2c1 [Example 401, 1-(2-(2-Hydroxyphenyl)-7-methylquinazolin-4-yl)-N-((pyridin-4-yl)methyl)azetidine-3-carboxamide] |
| > 10 | Cc1ccc2c(N3CC(C(=O)NCc4cccnc4)C3)nc(-c3ccccc3O)nc2c1 [Example 402, 1-(2-(2-Hydroxyphenyl)-7-methylquinazolin-4-yl)-N-((pyridin-3-yl)methyl)azetidine-3-carboxamide] |
| > 10 | Cc1ccc2c(N3CC(C(=O)NCc4cccc(OC(F)(F)F)c4)C3)nc(-c3ccccc3O)nc2c1 [Example 403, N-(3-(Trifluoromethoxy)benzyl)-1-(2-(2-hydroxyphenyl)-7-methylquinazolin-4-yl)azetidine-3-carboxamide] |
| 2 to 10 | Cc1ccc2c(N3CC(CNC(=O)OCC4CCCO4)C3)nc(-c3ccccc3O)nc2c1 (centres unmarked) [Example 415] |
| > 10 | Cc1ccc2c(N3CC(NC(=O)OCC4CCOC4)C3)nc(-c3ccccc3O)nc2c1 (centres unmarked) [Example 416] |
| > 10 | Cc1ccc2c(N3CC(CNC(=O)C4CCCO4)C3)nc(-c3ccccc3O)nc2c1 (centres unmarked) [Example 417] |
| 2 to 10 | Cc1ccc2c(N3CC(CNC(=O)OCC(C)C)C3)nc(-c3ccccc3O)nc2c1 [Example 418] |
| 2 to 10 | COCCOC(=O)NCC1CN(c2nc(-c3ccccc3O)nc3cc(C)ccc23)C1 [Example 419] |
| < 2 | Cc1ccc2c(N3CC(CNC(=O)OC(C)C)C3)nc(-c3ccccc3O)nc2c1 [Example 420] |
